The values below come from patent publication US11542475B2, “3D microphysiologic system” (Northwestern University, priority 2014, dated 2023).

The test system of test [1] is human fallopian tube epithelium. In words: Fallopian epithelia cilia beating quantification. Format: cell-based. Conditions: 7 days culture; P4 added to E2. The procedure: Human fallopian tissue was obtained from routine hysterectomies from women in their reproductive years (ages range from 26 to 50 years old) and who had not undergone exogenous hormonal treatment for at least three months prior to surgery. Informed consent was obtained from each patient and approval granted by the ethics committee of the Northwestern University. Human fallopian tissue was kept in the DMEM/F12 medium with 10% FBS on ice and processed within 24 hours. The tissue was washed with warm PBS solution two times before being transferred into warm dissection medium (Liebowitz 15 with 0.5% P/S and 10% FBS). After cleaning connective tissue from outside of the fallopian tissue, the fallopian tube was cut open and the inner epithelia layer was mechanically dissected using forceps. […]
Fallopian epithelia layers were cultured in estradiol (E2) 1 nM, E2 1 nM+progesterone (P4) 10 nM, E2 0.1 nM+P4 50 nM or with solvent only negative control for 7 days. Cilia beating movies were acquired using an Andor Spinning Disk Confocal with 5 ms exposure time and 5 ms readout time. […] The Multiple Kymograph plugin for the NIH ImageJ software was used to quantify cilia beating frequency. In each movie, 8 clusters of cilia were picked for the cilia beating quantification.

Test [2] deals with IGF1 secretion by human fallopian epithelium. Nature of the test: hIGF1 immunoblot of fallopian epithelium conditioned medium. Format: cell-based. As to the method:
Human fallopian tissue was obtained from routine hysterectomies from women in their reproductive years (ages range from 26 to 50 years old) and who had not undergone exogenous hormonal treatment for at least three months prior to surgery. Informed consent was obtained from each patient and approval granted by the ethics committee of the Northwestern University. Human fallopian tissue was kept in the DMEM/F12 medium with 10% FBS on ice and processed within 24 hours. The tissue was washed with warm PBS solution two times before being transferred into warm dissection medium (Liebowitz 15 with 0.5% P/S and 10% FBS). After cleaning connective tissue from outside of the fallopian tissue, the fallopian tube was cut open and the inner epithelia layer was mechanically dissected using forceps. […] Tissue was cultured on 0.4 μm pore Millicell inserts (PICM03050, EMD Millipore Co, Billerica, Mass., USA) twelve-well plates with culture medium in a 37° C. and 5% CO2 incubator. Estrogen (E2) and progesterone (P4) used in tissue culture experiments were purchased from Sigma (St. Louis, Mo.).
Cultured human fallopian epithelia layers were homogenized with a minipestle in ice-cold lysis buffer (20 mM Tris-HCl, pH 8.0, 137 mM NaCl, 10% glycerol, 1% NP-40, 2 mM EDTA). Lysate normalized for protein content was loaded into NuPAGE 4-12% gradient Bis-Tris precast SDS-PAGE gels and transferred to a nitrocellulose membrane (Life Technologies, Carlsbad, Calif., USA). Blots were probed by polyclonal anti-OVGP1 antibody (LsBio, Cambridge, Mass.) overnight in 4° C. followed by anti-rabbit secondary antibody conjugated to horseradish peroxidase (Zymed, San Francisco, Calif.). Proteins were detected by ECL primer (GE HealthCare Life Sciences, Pittsburgh, Pa.) and exposed to X-ray film (Kodak, Rochester, N.Y.). The same blot was stripped using stripping buffer (Thermo Scientific, Hanover Park, Ill.) and re-probed with monoclonal anti-α-tubulin (Sigma, St. Louis, Mo.) followed by an anti-mouse secondary antibody conjugated to horseradish peroxidase. NIH ImageJ Imaging Software was used to quantify the density of western blot bands. Conditioned medium from fallopian epithelia cultures was collected and probed via western blot analysis using a polyclonal anti-hIGF1 antibody (abcam, Cambridge, Mass.). The blot was detected by the same method described above.
Fallopian epithelia layers cultured on […] inserts were pre-cultured in the alpha-MEM with 0.3% BSA, ITS and 1% P/S medium for two days. Cell culture medium was collected for the glucose ELISA assay (abcam, Cambridge, Mass.). Medium was diluted 1:500 and ELISA was performed according to the protocol provided by the kit. […]

The next test deals with VEGF-A. Nature of the test: ELISA of fallopian culture medium: VEGF-A. Format: cell-based, human. Conditions: 10 nM E2, 7 days, n=7; not significantly altered. As to the method:
Tissues were micro-dissected in alpha-MEM (Gibco, Carlsbad, Calif.) with 1% penicillin-streptomycin (Invitrogen, Carlsbad, Calif.). Individual fimbriae were separated into ˜50 mm^3 pieces. A portion of the tissue was fixed in 2% paraformaldehyde for use as an uncultured control. For optimization studies, fimbriae were cultured without matrix, encapsulated in 0.5% alginate, or encapsulated in 0.5% alginate with 1 mg/ml collagen and 0.1% fibronectin, as previously described for murine cultures (King et al. J Vis Exp. 2011.; herein incorporated by reference in its entirety). For subsequent treatments, 0.5% alginate encapsulated fimbriae were randomly assigned to treatment groups, with at least five fimbriae per condition, per patient, in a 24-well plate containing alpha-MEM and 1% penicillin-streptomycin. […] Prior to fixation, fimbriae were labeled with 10 μM bromodeoxyurine (BrdU, Sigma-Aldrich) for 24 hours to denote proliferating cells. […]
IL8, VEGF-A, and FGF2 were detected in fallopian culture medium by enzyme-linked immunosorbent assay for human IL8 (EMD Millipore, Billerica, Mass., USA), VEGF-A (RayBiotech, GA, USA), or FGF2 (Abcam) respectively using the manufacturers' protocols. […] Results were normalized to total protein content as determined by western blotting and Ponceau staining to account for difference in tissue size between treatment groups. […]

Turning to `C[C@]12CC[C@@H]3c4ccc(O)cc4CC[C@H]3[C@@H]1CC[C@@H]2O` [E2, estradiol], in test [1], the “cilia beating frequency (CBF)” value is recorded as “significantly increased”. Further, the IGF1 secretion entry is “induced” in test [2] (7 days culture, 1 nM E2, P4 added to E2); “stimulated” in test [2] (28 days stepwise E2 and P4 treatment, P4 in the presence of E2). Also, in the test with VEGF-A, the “VEGF-A increase compared to vehicle control” value is reported as 140%±75%.
